Assay results reported in article PMC6017107 (Molecules : A Journal of Synthetic Chemistry and Natural …, 2018).
“Also recorded” adds a separate entry of the source. Where two headings read alike, the source gives them in different places.

What was measured:
[1] = in vivo
Protocol: (§1) Male ICR mice (age: 5–6 weeks old; body weight: 30 ± 2 g) were purchased from Samtako Co. (Osan, Gyeonggi-do, Korea), housed in plastic cages and given free access to a standard animal diet (Daejong, Seoul, Korea) and water. The environment was maintained under the following conditions: temperature, 23 ± 1 °C; 12-h light-dark cycle; and relative humidity, 50% ± 10%. The animals were acclimatized for a minimum period of 1 week and fasted overnight prior to experimentation.
(§2) The mice were randomly divided into four groups. Each group was pretreated with either control vehicle (a mixture of DMSO:PEG 400:distilled water; 5:45:50, v/v), piperine (10 mg/kg), capsaicin (5 mg/kg), or [6]-gingerol (5 mg/kg). The treatment solutions of piperine, capsaicin and [6]-gingerol were prepared by the dissolution of each compound in the DMSO:PEG 400:distilled water mixture at concentrations of 2, 1 and 1 mg/mL, respectively. The treatment solutions were administered intraperitoneally twice with τ = 60 min for control vehicle and piperine and τ = 30 min for capsaicin and [6]-gingerol. […] The physiological conditions of the animals were carefully monitored during the study.
(§3) The volume of injected dosing vehicle was 5 mL/kg. […] Plasma was harvested by centrifugation at 16,000× g for 10 min and immediately stored at −20 °C until analysis. […] All excised tissues were accurately weighed and homogenized (Tissue Tearor, Biospec Products Inc., Bartlesville, OK, USA) with appropriate volumes of isotonic saline. The obtained tissue homogenates were stored at −20 °C until analysis.
(§4) Sample analyses were conducted on an Agilent 6430 triple quadrupole mass spectrometer coupled with an Agilent 1200 HPLC (Agilent, Santa Clara, CA, USA). […] Chromatographic separation was performed using a binary gradient mobile phase composed of acetonitrile (A) and 0.05% formic acid (B) and programmed as follows: initial conditions, 20% A (0.3 mL/min) for 0.1 min and 80% A for 3 min; increased to 90% A in 0.1 min and maintained for 1 min; returned to the initial composition; followed by a 3.2-min equilibration step (1.5 min for 0.3 mL/min and then 1.7 min for 0.5 mL/min). The ESI source was operated in positive mode with curtain and nebulizer gas set at 10 and 20 psi, respectively. The capillary voltage and gas temperature were 4000 V and 300 °C, respectively.
(§5) The IS working solution (20 μL of 100 ng/mL IS solution for plasma and 50 μL of 100 ng/mL IS solution for tissue samples) and acetonitrile (50 μL for plasma and 80 μL for tissue samples) were added to 20 μL of plasma and 50 μL of tissue samples and mixed on a vortex mixer for 1 min. The mixture was then centrifuged at 16,000× g (Biofuge Fresco, Kendro, Osterode, Germany) for 10 min. For tissue samples, 100 μL of the supernatant was re-precipitated with an equal volume of acetonitrile and centrifuged at 16,000× g for 10 min. Finally, 50 μL distilled water was added to 50 μL of each supernatant, followed by mixing and injection of 10 μL of the sample mixture onto the LC-MS/MS. Data acquisition was performed with MassHunter Quantitative Analysis (Agilent, Santa Clara, CA, USA).
(§6) The pharmacokinetic parameters were determined by non-compartmental analysis using Phoenix® WinNonlin® 6.4 (Certara, L.P., Princeton, NJ, USA). As the procedure entailed destructive sampling, the non-compartmental analysis was performed by using the average plasma concentration vs. time data. These parameters included terminal half-life (t1/2), area under the plasma concentration-time curve from time zero to infinity (AUCinf), apparent volume of distribution during the terminal phase (Vz), the volume of distribution at steady state (Vss) and systemic clearance (CL).

[2] = tested on: ABC transporter genes; settings: MCF-7/DOX, A-549/DDP; ref [30]; cited from earlier work
[3] = tested on: mice; settings: cited from earlier work
[4] = tested on: P-gp, MRP1 and BCRP; settings: ref [30], cited from earlier work
[5] = tested on: MCF-7/DOX, A-549/DDP cells; settings: ref [30], cited from earlier work
[6] = Tissue distribution of phytochemicals after intraperitoneal administration; settings: mouse, in vivo, ip
Protocol: as §1
The mice were randomly divided into four groups. Each group was pretreated with either control vehicle (a mixture of DMSO:PEG 400:distilled water; 5:45:50, v/v), piperine (10 mg/kg), capsaicin (5 mg/kg), or [6]-gingerol (5 mg/kg). […] The physiological conditions of the animals were carefully monitored during the study. […]
The IS working solution (20 μL of 100 ng/mL IS solution for plasma and 50 μL of 100 ng/mL IS solution for tissue samples) and acetonitrile (50 μL for plasma and 80 μL for tissue samples) were added to 20 μL of plasma and 50 μL of tissue samples and mixed on a vortex mixer for 1 min. […] Data acquisition was performed with MassHunter Quantitative Analysis (Agilent, Santa Clara, CA, USA).
The pharmacokinetic parameters were determined by non-compartmental analysis using Phoenix® WinNonlin® 6.4 (Certara, L.P., Princeton, NJ, USA). […]

[7] = tested on: P-gp; settings: cited from earlier work; for IC50: Caco-2 cells
[8] = in vivo; settings: for Increase of the Kp of doxorubicin in the kidney by pretreatment, comparing with control: 2 h after administration; for Increase of the Kp of doxorubicin in the liver by pretreatment: mice (matches 2 h values of Table 4)
Protocol: as §1, §2, §3, §4, §5, §6

[9] = tested on: KB-C2 cells; settings: substrate Vinblastine, ref [7]; cited from earlier work
[10] = tested on: Caco-2 cells; settings: ref [6]; cited from earlier work
[11] = tested on: P-gp; settings: ref [7], cited from earlier work; for Effects on the P-gp mediated transport in vitro: KB-C2; for Increase of accumulation of rhodamine 123: KB-C2 cells
[12] = cited from earlier work
[13] = Plasma pharmacokinetics of doxorubicin i.v. in mice pretreated with phytochemical P-gp modulators; settings: male, ICR, mouse, in vivo, iv, 1 mg/kg, i.v. 1 mg/kg; for C0: C0 of doxorubicin; for clearance: CL of doxorubicin; for half-life: t1/2 of doxorubicin
Protocol: as §1, §2, §3, §4, §5, §6

[14] = male, ICR, mouse, in vivo, ip, 10 mg/kg
[15] = A-549/DDP, substrate Doxorubicin
[16] = male, ICR, mouse, in vivo, ip, 5 mg/kg

Compound O=C(/C=C/C=C/c1ccc2c(c1)OCO2)N1CCCCC1 [Piperine] has an AUC(0-inf) [1, 14] of 9960 ng·h/mL, a CL/F [1, 14] of 16.7 mL/min/kg and a Cmax [1, 14] of 5050 ng/mL. For the same compound, the Tmax [1, 14] was 45 min, the Vd/F [1, 14] was 9.12 L/kg and the half-life [1, 14] was 378 min. For the same compound, the “Effects on the P-gp mediated transport in vitro” value [2] was “Inhibited transcription of the corresponding ABC transporter genes”, the LD50 ([3]; mouse, in vivo, ip) was 60 mg/kg and the “Effects on the P-gp mediated transport in vitro” value [4, 15] was “Inhibited efflux activity of P-gp, MRP1 and BCRP”. For the same compound, the “Effects on the P-gp mediated transport in vitro” value ([4]; MCF-7/DOX, substrates Rhodamine 123, Mitoxantrone) was “Inhibited efflux activity of P-gp, MRP1 and BCRP”, the “Effects on the P-gp mediated transport in vitro” value [5, 15] was “Increased cytotoxicity by reversing transporter mediated doxorubicin and mitoxantrone resistance” and the “Effects on the P-gp mediated transport in vitro” value ([5]; substrate Mitoxantrone) was “Increased cytotoxicity by reversing transporter mediated doxorubicin and mitoxantrone resistance”. For the same compound, the Kp at 2 h ([6]; male, ICR, 10 mg/kg) was 1.69 ± 0.28, the “Effects on the P-gp mediated transport in vitro” value ([7]; Caco-2, L-MDR1, substrate [3H] Digoxin, ref [5]) was “Inhibited P-gp mediated efflux transport” and the “Effects on the P-gp mediated transport in vitro” value ([7]; Caco-2, substrates Digoxin, Cyclosporin A, ref [4]) was “Inhibited P-gp mediated efflux transport”. For the same compound, the IC50 ([7]; cyclosporine A, ref [4], read-out: IC50, inhibition of transport of P-gp substrate cyclosporine A) was 74.1 µM, the IC50 ([7]; digoxin, ref [4], read-out: IC50, inhibition of transport of P-gp substrate digoxin) was 15.5 µM and the “Increase of the Kp of doxorubicin in the kidney by pretreatment, comparing with control” value ([8]; mice) was 2.23 fold. The “Increase of the Kp of doxorubicin in the liver by pretreatment” value [8] was 5.44 fold.

With COc1cc(CNC(=O)CCCC/C=C/C(C)C)ccc1O [Capsaicin] the Detection in plasma ([1]; i.p. 5 mg/kg, mice, plasma) was “not detected 2–4 h after administration”, the AUC(0-inf) [1, 16] was 66.8 ng·h/mL and the CL/F [1, 16] was 1250 mL/min/kg. It also gave a Cmax [1, 16] of 119 ng/mL, a Tmax [1, 16] of 10.2 min and a Vd/F [1, 16] of 35.7 L/kg. For the same compound, the half-life [1, 16] was 19.8 min, the “Effects on the P-gp mediated transport in vitro” value [9] was “Increased vinblastine cytotoxicity by inhibition of efflux transporter” and the LD50 ([3]; i.p., mice, ref [57],[58]) was 7.6 mg/kg. The Cytotoxicity [10] was “no resulting cytotoxicity”, the “Effects on the P-gp mediated transport in vitro” value ([7]; Caco-2, substrate [3H] Digoxin, ref [6]) was “inhibited digoxin efflux mediated by P-gp; also recorded: Inhibited P-gp mediated efflux transport” and the “Effects on the P-gp mediated transport in vitro” value ([11]; substrate Daunorubicin) was “Increased cellular accumulation”. The “Effects on the P-gp mediated transport in vitro” value ([11]; substrate Rhodamine 123) was “Inhibited efflux transport”, the “Increase of accumulation of rhodamine 123” value ([11]; 50 μmol/L capsaicin) was 4 fold and the “Increase of the Kp of doxorubicin in the brain by pretreatment” value ([8]; brain, 2 h, mice) was 3.33 fold. The “Increase of the Kp of doxorubicin in the kidney by pretreatment, comparing with control” value ([8]; mice) was 1.95 fold and the “Increase of the Kp of doxorubicin in the liver by pretreatment” value [8] was 6.21 fold.

In the case of CCCCC[C@H](O)CC(=O)CCc1ccc(O)c(OC)c1 [[6]-Gingerol], the AUC(0-inf) [1, 16] is reported as 66.3 ng·h/mL, the CL/F [1, 16] is reported as 1260 mL/min/kg and the Cmax [1, 16] is reported as 153 ng/mL. The Detection in plasma [1, 16] was “not detected 2–4 h after administration”, the Tmax [1, 16] was 10.2 min and the Vd/F [1, 16] was 148 L/kg. For the same compound, the half-life [1, 16] was 81.6 min, the “Effects on the P-gp mediated transport in vitro” value [9] was “Increased vinblastine cytotoxicity by inhibition of efflux transporter” and the LD50 ([3]; mouse, in vivo, ip) was 58.1 mg/kg. The “Detection in brain, heart and testis” value [6] was “not detected”, the “Effects on the P-gp mediated transport in vitro” value ([7]; Caco-2, L-MDR1, substrate [3H] Digoxin, ref [8]) was “Inhibited P-gp mediated efflux transport” and the “Effects on the P-gp mediated transport in vitro” value ([7]; Caco-2, L-MDR1, substrate [3H] Digoxin, ref [8], listed as [6]-gingerol) was “inhibited P-gp-mediated digoxin transport”. The “Effects on the P-gp mediated transport in vitro” value ([11]; substrate Daunorubicin) was “Increased cellular accumulation”, the “Effects on the P-gp mediated transport in vitro” value ([11]; substrate Rhodamine 123) was “Inhibited efflux transport” and the “Increase of accumulation of rhodamine 123” value ([11]; in the presence of [6]-gingerol) was 2.24 fold.

In the case of COc1cccc2c1C(=O)c1c(O)c3c(c(O)c1C2=O)C[C@@](O)(C(=O)CO)C[C@@H]3O[C@H]1C[C@H](N)[C@H](O)[C@H](C)O1 [Doxorubicin], the “Injected doxorubicin excreted in bile” value ([12]; bile duct-cannulated rats, ref [45]) is given as 33–35%, the “Injected doxorubicin eliminated via urine” value ([12]; bladder-cannulated rats, ref [45]) is given as 4–8% and the “Initial dose appearing in the bile as unchanged doxorubicin” value ([12]; rats, within 3 h, ref [43]) is given as “approximately 30%”. The C0 ([13]; pretreatment Capsaicin) was 4430 ng/mL, the C0 ([13]; pretreatment Control) was 3980 ng/mL and the C0 ([13]; pretreatment Piperine) was 3400 ng/mL. It also gave a C0 ([13]; pretreatment [6]-Gingerol) of 4040 ng/mL, a clearance ([13]; pretreatment Capsaicin) of 25.2 mL/min/kg and a clearance ([13]; pretreatment Control) of 31 mL/min/kg. For the same compound, the clearance ([13]; pretreatment Piperine) was 25.6 mL/min/kg, the clearance ([13]; pretreatment [6]-Gingerol) was 28.8 mL/min/kg and the half-life ([13]; pretreatment Capsaicin) was 796 min. The half-life ([13]; pretreatment Control) was 1040 min, the half-life ([13]; pretreatment Piperine) was 941 min and the half-life ([13]; pretreatment [6]-Gingerol) was 929 min. The Kp ([8]; male, ICR, mouse, in vivo, iv, 1 mg/kg, Doxorubicin Kp values) was > 35.4.
